Data as given in patent publication US4196205A, “3-Acetoxymethyl-7-(iminoacetamido)-cephalosporanic acid derivatives” (priority 1976, dated 1980).
Values after ≈ are worked out from the molar mass of the structure shown. Read-outs that look alike come from different tables or passages of the source.

Assays:
[1] = tested on: Staphylococcus aureus UC 1 128 Pen-Resistant; experiment: MIC, dilution in liquid medium; format: cell-based; conditions: Staphylococcus aureus
In short: (§1)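 Tube dilution in sterile nutrient broth with increasing compound doses, each tube inoculated with the strain. Incubation 24 to 48 hours at 37° C; MIC (g/ml) read by transillumination.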

Escherichia Coli 25 575 = experiment: MIC, dilution in liquid medium; format: cell-based
In short: as §1

[2] = tested on: Escherichia Coli Resistant Tetracycline ATCC 11 303 = UC 1261; experiment: MIC, dilution in liquid medium; format: cell-based; conditions: Escherichia coli, read-out: M.I.C.
In short: as §1

Escherichia Coli E6 = experiment: MIC, dilution in liquid medium; format: cell-based
In short: as §1

[3] = tested on: Escherichia Coli Resistant Gentamicine, Tobramycine R 55 123 D; experiment: MIC, dilution in liquid medium; format: cell-based
In short: as §1

[4] = tested on: Salmonella typhimurium 420; experiment: MIC, dilution in liquid medium; format: cell-based; conditions: Salmonella enterica, TYPHIMURIUM, read-out: M.I.C.
In short: as §1

[5] = tested on: Proteus mirabilis (indol-) A 235; experiment: MIC, dilution in liquid medium; format: cell-based; conditions: Proteus mirabilis, read-out: M.I.C.
In short: as §1

[6] = tested on: Escherichia Coli Exp. TO26 B6; experiment: MIC, dilution in liquid medium; format: cell-based; conditions: Escherichia coli, 48 h
In short: as §1

[7] = tested on: Pseudomonas 3 935 Exp. SG; experiment: MIC, dilution in liquid medium; format: cell-based; conditions: Pseudomonas, 3935EXP.SG
In short: as §1

[8] = tested on: Escherichia Coli Sensible Tetracycline ATCC 9 637 = 1020; experiment: MIC, dilution in liquid medium; format: cell-based
In short: as §1

[9] = tested on: Staphylococcus aureus ATCC 5 638 Pen-Sensible = UC 1061; experiment: MIC, dilution in liquid medium; format: cell-based; conditions: read-out: M.I.C.
In short: as §1

[10] = tested on: Proteus vulgaris (indol+) A 232; experiment: MIC, dilution in liquid medium; format: cell-based
In short: as §1

[11] = tested on: Streptococcus faecalis 5 432; experiment: MIC, dilution in liquid medium; format: cell-based
In short: as §1

[12] = tested on: Klebsiella pneumoniae Exp. 52 145; experiment: MIC, dilution in liquid medium; format: cell-based; conditions: Klebsiella pneumoniae, read-out: M.I.C.
In short: as §1

Straphylococcus Smith = experiment: MIC, dilution in liquid medium; format: cell-based
In short: as §1

Enterobacter cloacae 681 = experiment: MIC, dilution in liquid medium; format: cell-based
In short: as §1

Escherichia Coli Galle = experiment: MIC, dilution in liquid medium; format: cell-based
In short: as §1

Providencia Du 48 = experiment: MIC, dilution in liquid medium; format: cell-based
In short: as §1

[13] = tested on: Streptococcus faecalis 99 F 74; experiment: MIC, dilution in liquid medium; format: cell-based; conditions: Enterococcus faecalis
In short: as §1

[14] = tested on: Staphylococcus aureus exp. n° 54 146; experiment: MIC, dilution in liquid medium; format: cell-based; conditions: Staphylococcus aureus
In short: as §1

[15] = tested on: Streptococcus pyogenes A 561; experiment: MIC, dilution in liquid medium; format: cell-based
In short: as §1

[16] = tested on: Serratia Resistant Gentamicine 2 532; experiment: MIC, dilution in liquid medium; format: cell-based; conditions: read-out: M.I.C.
In short: as §1

[17] = tested on: Bacillus subtilis ATCC 6 633; experiment: MIC, dilution in liquid medium; format: cell-based
In short: as §1

Pseudomonas 8951 RGT = experiment: MIC, dilution in liquid medium; format: cell-based
In short: as §1

[18] = tested on: Escherichia Coli T 96 875; experiment: MIC, dilution in liquid medium; format: cell-based
In short: as §1

[19] = tested on: Klebsiella pneumoniae 2 536 Resistant Gentamicine; experiment: MIC, dilution in liquid medium; format: cell-based
In short: as §1

[20] = tested on: Escherichia Coli (T) O26 B6; experiment: Experimental infection with Escherichia Coli (T) O26 B6 in mice, repeated (22.5 g, culture diluted 1/5.5); format: in vivo
Procedure: (§2) The product of Example 4 was studied for its activity against an experimental infection of Escherichia Coli in groups of 10 male mice weighing about 21.5 g. The mice recieved an intraperitoneal injection of 0.5 ml of a 24 hour old culture in a nutritive media of Escherichia Coli (T) O26 B6 of the Pasteur Institute diluted 1/6 with distilled water. The test product was administered subcutaneously or orally 1 hour and 5 and 24 hours after the infection and the number of dead was determined after 8 days.
The procedure was repeated with mice weighing about 22.5 g with an intraperitoneal injection of a 24 hour old culture of Escherichia Coli (T) O26 B6 diluted 1/5.5 with distilled water with the product of Example 4.

[21] = tested on: Escherichia Coli (T) O26 B6; experiment: Experimental infection with Escherichia Coli (T) O26 B6 in mice (21.5 g, culture diluted 1/6); format: in vivo, male mice
Procedure: as §2

Compound `CO/N=C(\C(=O)N[C@@H]1C(=O)N2C(C(=O)O)=C(COC(C)=O)CS[C@H]12)c1csc(N)n1` [Example 4, 3-acetoxymethyl-7-[2-(2-amino-4-thiazolyl)-2-methoxyiminoacetamido]-ceph-3-eme-4-carboxylic acid] has an MIC ([1]; UC1, 24 h, 24 H) of 2 µg/mL (≈ 4.39 µM), an MIC ([1]; UC1, 48 h, 48 H) of 2 µg/mL (≈ 4.39 µM) and an MIC (Escherichia Coli 25 575; COLI25575, 24 h) of 0.05 µg/mL (≈ 0.11 µM). The MIC (Escherichia Coli 25 575; COLI25575, 48 h) was 0.05 µg/mL (≈ 0.11 µM), the MIC ([2]; 24 h) was 0.02 µg/mL (≈ 0.0439 µM) and the MIC ([2]; 48 h) was 0.02 µg/mL (≈ 0.0439 µM). The MIC (Escherichia Coli E6; COLIE6, 24 h) was 0.05 µg/mL (≈ 0.11 µM), the MIC (Escherichia Coli E6; COLIE6, 48 h) was 0.05 µg/mL (≈ 0.11 µM) and the M.I.C. ([3]; 24 H) was 0,6 μg/ml. For the same compound, the M.I.C. ([3]; 48 H) was 0,6-1 μg/ml, the MIC ([4]; 24 h) was 0.2 µg/mL (≈ 0.439 µM) and the MIC ([4]; 48 h) was 0.2 µg/mL (≈ 0.439 µM). It also gave an MIC ([5]; 24 h) of 0.02 µg/mL (≈ 0.0439 µM), an MIC ([5]; 48 h) of 0.02 µg/mL (≈ 0.0439 µM) and an MIC [6] of 0.1 µg/mL (≈ 0.22 µM). The MIC ([7]; 24 h, read-out: M.I.C.) was 10 µg/mL (≈ 22 µM), the MIC ([7]; 48 h) was 40 µg/mL (≈ 87.8 µM) and the M.I.C. ([8]; 48 H) was 0,2 μg/ml. The MIC ([8]; Escherichia coli, ATCC9, 24 h, 24 H, read-out: M.I.C.) was 0.2 µg/mL (≈ 0.439 µM), the MIC ([9]; 24 h) was 1 µg/mL (≈ 2.2 µM) and the MIC ([9]; 48 h) was 1 µg/mL (≈ 2.2 µM). The M.I.C. ([10]; 24 H) was 2 µg/mL, the M.I.C. ([10]; 48 H) was 40 µg/mL and the MIC ([11]; Enterococcus faecalis, 5432, 24 h, 24 H) was 2 µg/mL (≈ 4.39 µM). It also gave an MIC ([11]; Enterococcus faecalis, 5432, 48 h, 48 H) of 2 µg/mL (≈ 4.39 µM), an MIC ([12]; EXP.52145, 24 h, 24 H) of 0.02 µg/mL (≈ 0.0439 µM) and an MIC ([12]; EXP.52145, 48 h, 48 H) of 0.02 µg/mL (≈ 0.0439 µM). For the same compound, the MIC (Straphylococcus Smith; 24 h) was 1 µg/mL (≈ 2.2 µM), the MIC (Straphylococcus Smith; 48 h) was 1 µg/mL (≈ 2.2 µM) and the MIC (Enterobacter cloacae 681; Enterobacter cloacae, 681, 24 h) was 40 µg/mL (≈ 87.8 µM). For the same compound, the MIC (Enterobacter cloacae 681; Enterobacter cloacae, 681, 48 h) was 40 µg/mL (≈ 87.8 µM), the MIC (Escherichia Coli Galle; 24 h) was 0.1 µg/mL (≈ 0.22 µM) and the MIC (Escherichia Coli Galle; 48 h) was 0.2 µg/mL (≈ 0.439 µM). The M.I.C. (Providencia Du 48; 24 H) was 5 µg/mL, the M.I.C. (Providencia Du 48; 48 H) was 5 µg/mL and the MIC ([13]; 99F74, 24 h, 24 H) was 2 µg/mL (≈ 4.39 µM). The MIC ([13]; 99F74, 48 h, 48 H) was 3 µg/mL (≈ 6.59 µM), the MIC ([14]; 24 h, read-out: M.I.C.) was 3 µg/mL (≈ 6.59 µM) and the MIC ([14]; 48 h) was 3 µg/mL (≈ 6.59 µM). For the same compound, the M.I.C. ([15]; 48 H) was 0,05 μg/ml, the MIC ([15]; Streptococcus pyogenes, A561, 24 h, 24 H, read-out: M.I.C.) was 0.02 µg/mL (≈ 0.0439 µM) and the MIC ([16]; 24 h) was 1 µg/mL (≈ 2.2 µM). For the same compound, the MIC ([16]; 48 h) was 1 µg/mL (≈ 2.2 µM), the M.I.C. ([17]; 24 H) was 0,2 μg/ml and the MIC ([17]; Bacillus subtilis, ATCC6, 48 h, 48 H, read-out: M.I.C.) was 1 µg/mL (≈ 2.2 µM). For the same compound, the MIC (Pseudomonas 8951 RGT; 24 h) was 40 µg/mL (≈ 87.8 µM), the MIC (Pseudomonas 8951 RGT; 48 h) was over 40 µg/mL and the MIC ([18]; COLIT96875, 24 h) was 0.05 µg/mL (≈ 0.11 µM). For the same compound, the MIC ([18]; COLIT96875, 48 h) was 0.05 µg/mL (≈ 0.11 µM), the M.I.C. ([19]; 24 H) was 0,6 μg/ml and the M.I.C. ([19]; 48 H) was 0,6 μg/ml. The “MORTALITY AFTER 9H 35” value ([20]; 0,1 mg OS) was 1, the “MORTALITY AFTER 24H” value ([20]; 0,1 mg OS) was 1 and the “MORTALITY AFTER 32H” value ([20]; 0,1 mg OS) was 2. The “MORTALITY AFTER 70H” value ([20]; 0,1 mg OS) was 1, the “Mice alive on the 8th Day” value ([20]; 0,1 mg OS) was 5/10 and the “MORTALITY AFTER 22H 30” value ([20]; 0,05 mg OS) was 4. For the same compound, the “MORTALITY AFTER 24H” value ([20]; 0,05 mg OS) was 1, the “MORTALITY AFTER 31H” value ([20]; 0,05 mg OS) was 1 and the “MORTALITY AFTER 32H” value ([20]; 0,05 mg OS) was 2. For the same compound, the “Mice alive on the 8th Day” value ([20]; 0,05 mg OS) was 2/10, the “Mice alive on the 8th Day” value ([20]; 0,05 mg S.C.) was 10/10 and the “Mice alive on the 8th Day” value ([20]; 0,25 mg OS) was 10/10. The “MORTALITY AFTER 22H 30” value ([20]; 0,015 mg S.C.) was 2, the “MORTALITY AFTER 23H 50” value ([20]; 0,015 mg S.C.) was 2 and the “MORTALITY AFTER 46H 30” value ([20]; 0,015 mg S.C.) was 2. The “Mice alive on the 8th Day” value ([20]; 0,015 mg S.C.) was 4/10, the “MORTALITY AFTER 4j” value ([20]; 0,025 mg S.C.) was 2 and the “MORTALITY AFTER 25H 50” value ([20]; 0,025 mg S.C.) was 1. The “MORTALITY AFTER 26H 30” value ([20]; 0,025 mg S.C.) was 1, the “Mice alive on the 8th Day” value ([20]; 0,025 mg S.C.) was 6/10 and the “mice alive after 8 days” value ([21]; 0.05 mg subcutaneously) was 10/10. The “deaths after 28.5 h (out of 10 mice)” value ([21]; 0.1 mg orally) was 1, the “mice alive after 8 days” value ([21]; 0.1 mg orally) was 9/10 and the “mice alive after 8 days” value ([21]; 0.1 mg subcutaneously (first line)) was 10/10. For the same compound, the “mice alive after 8 days” value ([21]; 0.1 mg subcutaneously (second line)) was 10/10, the “mice alive after 8 days” value ([21]; 0.25 mg orally) was 10/10 and the “mice alive after 8 days” value ([21]; 0.25 mg subcutaneously) was 10/10. The “mice alive after 8 days” value ([21]; 0.5 mg orally) was 10/10.
